Experimental data reported in ChEMBL document CHEMBL3046877, “Synthesis and bioevaluation of novel arylnaphthalene lignans as anticancer agents” (Med Chem Res, 2013).
The source made the active and inactive calls. The rule behind the calls is not given here.

Legend:
[1] = test system: HEK293; experiment: Cytotoxicity against Homo sapiens (human) HEK293 cells assessed as decrease in cell growth after 3 days by MTT assay; assay type: cell-based; settings: HEK293, 72 h
[2] = test system: SW480; experiment: Anticancer activity against Homo sapiens (human) SW480 cells assessed as decrease in cell growth after 3 days by MTT assay; assay type: functional, cell-based; settings: SW480, 72 h
[3] = test system: A549; experiment: Anticancer activity against Homo sapiens (human) A549 cells assessed as decrease in cell growth after 3 days by MTT assay; assay type: functional, cell-based; settings: A549, 72 h
[4] = test system: HCT-116; experiment: Anticancer activity against Homo sapiens (human) HCT116 cells assessed as decrease in cell growth after 3 days by MTT assay; assay type: functional, cell-based; settings: HCT-116, 72 h
[5] = test system: KB; experiment: Anticancer activity against Homo sapiens (human) KB cells assessed as decrease in cell growth after 3 days by MTT assay; assay type: functional, cell-based; settings: 72 h
[6] = test system: KB; experiment: Induction of apoptosis in Homo sapiens (human) KB cells assessed as plasma membrane blebbing at 5 to 10 uM after 72 hr by AO/EB double staining based fluorescence microscopic analysis; assay type: functional, cell-based
[7] = test system: KB; experiment: Induction of apoptosis in Homo sapiens (human) KB cells assessed as increase in Bax expression at 5 to 15 uM after 72 hr by western blot analysis; assay type: functional, cell-based
[8] = test system: KB; experiment: Induction of apoptosis in Homo sapiens (human) KB cells assessed as decrease in Bcl-2 expression at 5 to 15 uM after 72 hr by western blot analysis; assay type: functional, cell-based

Row | Compound | IC50 [1] [µM] | IC50 [2] [µM] | IC50 [3] [µM] | IC50 [4] [µM] | IC50 [5] [µM] | Activity [6] | Activity [7] | inhibition [8]
1 | COc1cc([C@@H]2c3cc4c(cc3[C@@H](O[C@@H]3O[C@@H]5CO[C@@H](C)O[C@H]5[C@H](O)[C@H]3O)[C@H]3COC(=O)[C@H]23)OCO4)cc(OC)c1O [ETOPOSIDE] | > 100 | – | – | – | – | – | – | –
2 | COc1ccc(OC)c(-c2c3c(c(O)c4cc(OC)c(OC)cc24)COC3=O)c1 | > 100 | > 100 | > 100 | > 100 | > 100 | – | – | –
3 | COc1cccc(-c2c3c(c(O)c4cc(OC)c(OC)cc24)COC3=O)c1 | > 100 | > 100 | > 100 | 88.5 | > 100 | – | – | –
4 | COc1cc2c(O)c3c(c(-c4ccccc4OC)c2cc1OC)C(=O)OC3 | > 100 | 22.8 | > 100 | > 100 | > 100 | – | – | –
5 | COc1ccc(-c2c3c(c(O)c4cc(OC)c(OC)cc24)COC3=O)cc1 | > 100 | > 100 | > 100 | > 100 | 20.6 | – | – | –
6 | COc1cc2c(O)c3c(c(-c4ccc5c(c4)OCO5)c2cc1OC)C(=O)OC3 [DIPHYLLIN] | > 100 | – | – | 48.5 | – | – | – | –
7 | COc1cc2c(O)c3c(c(-c4ccc(C)cc4)c2cc1OC)C(=O)OC3 | > 100 | > 100 | > 100 | > 100 | 15.1 | – | – | –
8 | COc1cc2c(O)c3c(c(-c4ccccc4)c2cc1OC)C(=O)OC3 | > 100 | > 100 | > 100 | > 100 | > 100 | – | – | –
9 | COc1ccc(-c2c3c(c(O)c4cc(OC)c(OC)cc24)COC3=O)cc1OC | > 100 | > 100 | > 100 | > 100 | > 100 | – | – | –
10 | COc1cc2c(O)c3c(c(-c4cc(OC)c(OC)c(OC)c4)c2cc1OC)C(=O)OC3 | > 100 | > 100 | 97.2 | > 100 | 23.2 | – | – | –
11 | COc1cc(OC)cc(-c2c3c(c(O)c4cc(OC)c(OC)cc24)COC3=O)c1 | > 100 | 5.6 | > 100 | 29.3 | 5.1 | Active | Active | Active
